Laboratory results as given in patent US20240148745A1, “COMPOUNDS FOR USE IN PROGRESSIVE MULTIPLE SCLEROSIS” (FONDAZIONE CENTRO SAN RAFFAELE, priority 2021, published 2024).

Tests used:
[1] = test system: rat oligodendrocyte progenitor CG4 line; assay: Differentiation assay on rat oligodendrocyte progenitor CG4 line (HCS, mCherry+); assay type: cell-based; details: secondary screen of 49 selected compounds, 1 μM, 5 days
In short: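 Double-reporter CG4 cells (mCherry in mature oligodendrocytes, EGFP in all lineage stages) proliferated 24 h, then given compounds at 1 μM for 5 days of differentiation, ⅔ medium changed at day 3. 9cis-RA as positive control, basal medium and 0.1% DMSO as negative; triplicates imaged by HCS, 35 fields/well.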

[2] = test system: human iPS-derived neuroprecursors; assay: Differentiation of human iPS-derived neuroprecursors into MBP+ oligodendrocytes; assay type: cell-based; details: 1 μM in minimal medium, p<0.05
Source text: NPC bearing a doxycycline inducible polycistronic construct containing SOX10, OLIG2 and NKX6.2^29 in a human safe harbor (passages 10 to 25) were singularized on day −3 by treatment with Accutase and plated on Matrigel-coated 12-well plates at a density of 100.000 cells per well in N2B27-medium containing equal parts of neurobasal (Invitrogen) and DMEM-F12 medium (Invitrogen) with 1:100 B27 supplement lacking vitamin A (Invitrogen), 1:200 N2 supplement (Invitrogen), 1% penicillin/streptomycin/glutamine (PSG), 3 μM CHIR99021 (Axon Medchem), 150 μM ascorbic acid and 0.5 μM SAG. The next day medium was changed to N2B27-medium containing 1 μg/ml doxycycline. On DO medium was changed to glial-induction medium (GIM) consisting of DMEM-F12 with 1:100 B27 supplement lacking vitamin A, 1:200 N2 supplement, 1% PSG, 1 μM SAG, 10 ng/mL NT3 (Peprotech), 10 ng/mL IGF-I (Peprotech), 200 μM AA (Sigma), 1:1000 Trace Elements B (Corning). For full medium conditions 10 ng/ml T3 was added. On Day 2 medium was changed to glial-differentiation medium (GDM) comprising DMEM-F12 with 1:100 B27 supplement lacking vitamin A, 1:200 N2 supplement, 1% PSG, 100 μM dbCAMP (Sigma), 100 μM AA, 1:1000. For full medium conditions 60 ng/mL T3, Trace Elements B 10 ng/mL, IGF-I, 10 ng/mL and NT3 were added to the culture. GDM was changed every other day. On day 7 cells were detached by treatment with Accutase and re-plated on laminin coated 48-well plates at densities of 10.000-12.000 cells per well. After 24 h cells were treated in minimal medium with either vehicle alone [0.01% (vol/vol) DMSO] as a negative control, 60 ng/mL T3 as a positive control, or with a drug candidate dissolved in DMSO. Medium was changed every other day. On D16 doxycycline was removed from the medium. Cells were fixed on D21 and analyzed via immunocytochemistry.
Immunocytochemistry. Cells were initially fixed with 4% PFA treatment for 20 min, RT. Following three washes with PBS cells were incubated with blocking solution containing 5% normal goat serum (NGS) and 5% FCS (fetal calf serum) in PBS for 30 min at RT to prevent unspecific binding of the antibodies. To detect intracellular antigens cells were permeabilized by adding 0.5% Triton X-100 to the Blocking-solution. Cells treated with Triton X-100 were washed three times with PBS each time for 5 min at RT. Primary antibodies (rat anti-MBP,1:50, Abcam, AB7349) were applied overnight, 4° C., in blocking solution. The next day cells were washed 3 times with PBS at RT, and afterwards incubated with secondary antibodies (AF488 Alexa Fluor anti-rat (goat), 1:500, Jackson/Dianova, #112-545-167) diluted in PBS for 1 h at RT. Secondary antibodies were subsequently removed by washing 3 times with PBS. Afterwards PBS containing a Dapi staining for nuclei was added for 5 minutes and afterwards washed off with PBS. Cells were kept at 4° C. until imaging.
Imaging and evaluation. From each condition (triplicates) 20-30 pictures were taken randomly chosen by the Dapi-signal. Cell numbers were determined by using an ImageJ Macro to count the nuclei whereas MBP positive cells were subsequently counted manually in black and white images.
The effect on oligodendroglial differentiation of 32 compounds (“Front runners”) was tested. Induced pluripotent stem cells in which the transcription factors SOX10, OLIG2, NKX6.2 were inserted in a doxycycline inducible manner into a human safe harbor were differentiated into neural stem cells. Differentiation into oligodendrocytes was induced by addition of doxycycline. Cells were cultured either in a minimal medium (MM) (negative control) or in MM with the different compounds at a concentration of 1 μM. Addition of T3 to the minimal medium served as a positive control.

Row | Compound | CG4 differentiation compared with 9cis-RA positive control [1] | differentiation into MBP+ oligodendrocytes [2] | differentiation into MBP+ oligodendrocytes ([2]; Hydrochloride)
1 | O=C(c1ccc(CN2CCOCC2)cc1)N1CCN(C2CC2)CC1 [Bavisant] | promoting differentiation significantly higher than 9cis-RA positive control | promote significantly (p<0.05) the differentiation into MBP+ oligodendrocytes | –
2 | NCCCC[C@H](NC(=O)[C@@H](Cc1cc(Br)c(O)c(Br)c1)NC(=O)N1CCC(N2Cc3ccccc3NC2=O)CC1)C(=O)N1CCN(c2ccncc2)CC1 [Olcegepant] | promoting differentiation significantly higher than 9cis-RA positive control | promote significantly (p<0.05) the differentiation into MBP+ oligodendrocytes | –
3 | CC(=O)N1CCN([C@H]2CCN(C(=O)N(C)[C@H](C)c3cc(C(F)(F)F)cc(C(F)(F)F)c3)[C@@H](c3ccc(F)cc3C)C2)CC1 [Casopitant] | promoting differentiation significantly higher than 9cis-RA positive control | promote significantly (p<0.05) the differentiation into MBP+ oligodendrocytes | –
4 | CC(=O)[C@H]1CC[C@H]2[C@@H]3CCC4=CC(=O)CC[C@]4(C)[C@H]3CC[C@]12C [Progesterone] | promoting differentiation significantly higher than 9cis-RA positive control | promote significantly (p<0.05) the differentiation into MBP+ oligodendrocytes | –
5 | O=C(NOC[C@H](O)CO)c1ccc(F)c(F)c1Nc1ccc(I)cc1F [PD-0325901] | promoting differentiation significantly higher than 9cis-RA positive control | promote significantly (p<0.05) the differentiation into MBP+ oligodendrocytes | –
6 | CC1(C)CCC(C)(C)c2cc(NC(=O)c3ccc(C(=O)O)cc3)ccc21 [Tamibarotene] | promoting differentiation significantly higher than 9cis-RA positive control | – | –
7 | C[C@H](Nc1cc(-c2cnn(C)c2)cc(Nc2cnccn2)n1)c1ccc(F)cc1 [NS-018] | promoting differentiation significantly higher than 9cis-RA positive control | promote significantly (p<0.05) the differentiation into MBP+ oligodendrocytes | –
8 | CCOC(=O)[C@@H](N)CCC(=O)N[C@@H](CSCc1ccccc1)C(=O)N[C@@H](C(=O)OCC)c1ccccc1.Cl [Ezatiostat hydrochloride, Ezatiostat Hydrochloride] | promoting differentiation significantly higher than 9cis-RA positive control | – | promote significantly (p<0.05) the differentiation into MBP+ oligodendrocytes
